Assay results taken from paper PMC7822874, “Chemoprotective antimalarials identified through quantitative high-throughput screening of Plasmodium blood and liver stage parasites” (Scientific Reports, 2021).
Read-outs that look alike come from different tables or passages of the source.

Experiments:
[1] = test system: P. falciparum Dd2 (clone B2) asexual blood stage parasites; experiment: P. falciparum Dd2 asexual blood stage SYBR Green-I 72 h proliferation assay (qHTS); format: cell-based, Plasmodium falciparum; conditions: averaged P. falciparum asexual blood stage potency, log10 of AC50 in M
HepG2-A16-CD81EGFP cells = conditions: averaged response (percent)
[2] = test system: P. berghei-ANKA-GFP-LucCON liver stage parasites in HepG2-A16-CD81EGFP cells; experiment: P. berghei liver stage Pb-Luc assay, Method 1 (UCSD, 1536-well); format: cell-based, Plasmodium berghei; conditions: P. berghei liver stage, averaged response (percent); for Average P. berghei 1 µM response (%): the header list (r8) defines it as the 1 µM dose
[3] = HepG2, the header list (r10) describes it as the 1 µM dose

| Compound | Pf ABS Log AC50 (M) [1] [M] | Average HepG2 3 µM response( %) (HepG2-A16-CD81EGFP cells; HepG2, 3 µM dose) [%] | Average HepG2 3 µM response( %) (HepG2-A16-CD81EGFP cells; [3]) [%] | Average P. berghei 3 µM response( %) [2] [%] | Average P. berghei 1 µM response (%) [2] [%] |
| --- | --- | --- | --- | --- | --- |
| CCOc1ccc(Nc2nc(NCC3CCCO3)c3ccccc3n2)cc1 (stereo not drawn) [MLS000724397] | -5.737 | 84 | 102 | 10 | 59 |
| COc1ccc2[nH]c(C[C@@H]3C[C@@H](C(C)C)[C@H](CNCc4ccccc4OC)C=C3C)nc2c1 [NCGC00392082] | -5.025 | 97 | 99 | 47 | 75 |
| Cc1ccc(/C=N/NC(=O)c2cc3ccccc3cc2O)o1 [MLS001219838] | -5.275 | 98 | 98 | 6.47 | 18 |
| O=C(Nc1ccc(Cl)cc1)Nc1ccc2c(c1)N1CCN=C1S2 [MLS000078440] | -5.612 | 94 | 98 | 69 |  |
| CCN1CCN(C(=O)c2ccc3c(c2)N(Cc2c(F)cccc2Cl)C(=O)c2ccccc2S3)CC1 [NCGC00108184] | -8.075 | 107 | 105 | 76 | 94 |
| CC1CCN(C(=O)CSc2nc(-c3ccc(C(C)C)cc3)no2)CC1 [NCGC00127906] | -5.925 | 105 | 105 | 103 | 130 |
| O=C(c1ccc([N+](=O)[O-])o1)N1CCN(c2nc3c(F)cc(F)cc3s2)CC1 [MLS001234228] | -5.462 | 107 | 103 | 65 | 77 |
| CCCN(CCC)CCNC(=O)c1cc2c(-c3ccc(Cl)cc3)nn(C)c2s1 [NCGC00108997] | -6.212 | 98 | 102 | 49 | 57 |
| Cc1ccc2oc(=O)c3cnn(CC(=O)Nc4cccc(C(F)(F)F)c4)c3c2c1 [NCGC00110933] | -5.575 | 98 | 97 | 101 | 114 |
| O=C(Nc1c(C(=O)c2ccccc2)oc2ccccc12)c1cc(-c2ccccc2O)n[nH]1 [MLS000331861] | -5.837 | 101 | 103 | 116 | 84 |
| O=C(O)c1ccc(-c2nc3cnccc3[nH]2)cc1 [NCGC00375713] | -5.264 | 104 | 105 | 94 | 106 |
| Cc1nn2c(c1-c1ccccc1-c1ccccc1)N(Cc1ccc(O)cc1)CCC2 [NCGC00420512] | -6.314 | 111 | 98 | 24 | 80 |
| COc1cc2c(cc1Oc1cccc(N(C)C)c1)NC(=O)C21CCN(c2cnccn2)CC1 [NCGC00416778] | -5.825 | 89 | 98 | 43 | 96 |
| CCOC(=O)c1c[nH]c2c(C)cc(C)cc2c1=O [MLS000530578] | -5.437 | 102 | 102 | 9.48 | 49 |
| CCOC(=O)N1CCc2c(sc3nc4n(c(=O)c23)N=C(c2ccc(OC)cc2)CS4)C1 [MLS000859689] | -5.012 | 98 | 100 | 87 | 113 |
| CCOC(=O)Cn1c2c(c(=N)c3c1CCC3)CCCC2 [MLS000702567] | -4.912 | 104 | 104 | 104 | 95 |
| CCc1cccc(-n2c(=O)c3cccnc3n2CC(=O)Nc2ccc(F)c(C)c2)c1 [NCGC00128424] | -5.575 | 103 | 107 | 91 | 110 |

| Compound | Pf ABS Log AC50 (M) [1] [M] | Average HepG2 3 µM response( %) (HepG2-A16-CD81EGFP cells; HepG2, 3 µM dose) [%] | Average HepG2 3 µM response( %) (HepG2-A16-CD81EGFP cells; [3]) [%] | Average P. berghei 3 µM response( %) [2] [%] | Average P. berghei 1 µM response (%) [2] [%] |
| --- | --- | --- | --- | --- | --- |
| COc1ccc(C(CCN2CCCCC2)c2c(O)cc(OC)cc2OC)cc1 (stereo not drawn) [MLS000879486] | -5.962 | 88 | 92 | 88 | 105 |
| CC(C)OCCCNc1sc([S+](=O)([O-])c2ccccc2)nc1[S+](=O)([O-])c1ccc(Cl)cc1 [NCGC00116822] | -6.575 | 94 | 93 | 76 | 75 |
| O=S1(=O)N(CCN2CC=C(c3c[nH]c4cc(F)ccc34)CC2)c2cccc3c2N1CCC3 [MLS002172448] | -6.050 | 80 | 88 | 60 | 78 |
| Cc1ccc(O)c([C@H](CCN(C(C)C)C(C)C)c2ccccc2)c1 [NCGC00159519] | -5.437 | 104 | 100 | 83 | 97 |
| CCOC(=O)c1cn(CC)c2cc(N3CCSCC3)c(F)cc2c1=O [MLS000038775] | -6.012 | 85 | 89 | 21 |  |
| COc1ccccc1NC(=O)CN1CCN(C(=O)c2ccco2)CC1 [MLS000122729] | -5.462 | 102 | 102 | 65 | 115 |
| Cn1ccc(NCc2nnc(C(=O)N3CCC[C@@H]3C(c3ccccc3)c3ccccc3)n2-c2ccccc2)n1 [NCGC00415774] | -5.875 | 99 | 96 | 89 | 95 |
| COc1cccc(CNCC(O)(c2ccc(Cl)cc2)c2ccc(Cl)cc2)c1 [MLS000325699] | -5.812 | 101 | 105 | 98 | 112 |
| CCCCn1c2c(c(=N)c3c1CCC3)CCC2 [MLS000080126] | -5.587 | 80 | 110 | 4 | 41 |
| Cc1ccccc1NC(=O)Nc1ccc2nc(N3CCN(C)CC3)cc(C)c2c1 [NCGC00126513] | -5.825 | 106 | 104 | 104 | 110 |
| COC(=O)[C@H]1[C@H]2C[C@@H]3c4[nH]c5cc(OC)ccc5c4CCN3C[C@H]2C[C@@H](OC(=O)/C=C/c2cc(OC)c(OC)c(OC)c2)[C@@H]1OC [MLS002153878] | -5.162 | 105 | 105 | 84 | 102 |
| Oc1ccc(C2NCc3ccccc3-n3cccc32)cc1Cl (stereo not drawn) [MLS000878874] | -5.925 | 105 | 105 | 82 | 96 |
| COc1ccc(-c2nc3sc(CCNC(=O)c4ccc(C(C)(C)C)cc4)c(C)n3n2)cc1 [NCGC00137079] | -5.675 | 98 | 98 | 84 | 132 |
| c1cc(Nc2ncnc3sc4c(c23)CCC4)ccn1 [MLS000681348] | -5.462 | 103 | 103 | 95 | 92 |
| CCOc1ccccc1CN1CCC2(CCN(CCC(C)C)CC2)Oc2ccccc21 [NCGC00478188] | -5.475 | 105 | 100 | 48 | 106 |
| c1ccc(CNc2nc(-c3ccccn3)nc3ccccc23)cc1 [MLS001165148] | -5.662 | 87 | 96 | 8 | 72 |
| COc1ccc(N2CCN(c3cc(C4CC(N)C4)nc(N)n3)CC2(C)C)cc1 (stereo not drawn) [NCGC00422579] | -5.525 | 100 | 102 | 82 | 91 |
